Experiments:
[1] = target: EGFR L858R/T790M Ba/F3 cells (Homo sapiens (Human), UniProt P00533, L858R/T790M); test: Ba/F3 cell growth inhibition (MTS assay), EGFR L858R/T790M; format: cell-based
Text: (§1) The specific cDNAs encoding the oncogenic alterations (EGFR: Del 19, L858R, L718Q, L844V, Del/T790M, L858R/T790M, Del 19/L718Q, Del 19/L844V, Del 19/T790M/L718Q and L858R/T790M/L718Q; FGFR: TEL-FGFR1, TEL-FGFR2, TEL-FGFR1 V561M, TEL-FGFR2 V561M; ALK: EML4-ALK; ROS1: CD74-ROS1) were cloned into the pDNA-Dual (BD Biosciences) vector using standard molecular biology techniques. Mutations were introduced using site-directed mutagenesis (Agilent) with mutant specific primers according to the manufacturer's instructions. All constructs were confirmed by DNA sequencing. The constructs were introduced into Ba/F3 cells using retroviral infection. Polyclonal cell lines were established by puromycin selection and subsequently cultured in the absence of interleukin-3 (IL-3). Uninfected Ba/F3 cells or cell lines expressing green fluorescent protein (GFP) were used as controls.
(§2) Growth and inhibition of growth was assessed by MTS assay. This assay, a colorimetric method for determining the number of viable cells, is based on the bioreduction of 3-(4,5-dimethylthiazol-2-yl)-5-(3-carboxymethoxyphenyl)-2-(4-sulfophenyl)-2H-tetrazolium (MTS) by cells to a formazan product that is soluble in cell culture medium, can be detected spectrophotometrically and was performed according to the manufacturer's recommended conditions. Ba/F3 cells were exposed to treatment for 72 hours and the number of cells used per experiment determined empirically to assure linear growth kinetics over that time period. All experimental points were set up in six to twelve wells and all experiments were repeated at least three times. […] The curves were fitted using a non-linear regression model with a sigmoidal dose response.

[2] = target: EGFR Del Ba/F3 cells (Homo sapiens, UniProt P00533, cells depend on it, form not given); test: Ba/F3 cell growth inhibition (MTS assay), EGFR Del; format: cell-based
Text: as §1, §2

[3] = target: EGFR L858R/T790M/L718Q Ba/F3 cells (Homo sapiens (Human), UniProt P00533, L718Q/L858R/T790M); test: Ba/F3 cell growth inhibition (MTS assay), EGFR L858R/T790M/L718Q; format: cell-based
Text: as §1, §2

[4] = target: EGFR Wild type vIII Ba/F3 cells (Homo sapiens (Human), UniProt P00533, DELINS30-297G); test: Ba/F3 cell growth inhibition (MTS assay), EGFR Wild type vIII; format: cell-based; details: Assay 1, read-out: EGFR Ba/F3 cells IC 50 (nM) Assay 1 Wild type vIII
[5] = target: EGFR Del/T790M Ba/F3 cells (Homo sapiens, UniProt P00533, T790M, cells depend on it, form not given); test: Ba/F3 cell growth inhibition (MTS assay), EGFR Del/T790M; format: cell-based
Text: as §1, §2

[6] = target: EGFR L858R Ba/F3 cells (Homo sapiens (Human), UniProt P00533, L858R); test: Ba/F3 cell growth inhibition (MTS assay), EGFR L858R; format: cell-based
Text: as §1, §2

[7] = target: BTK (Homo sapiens (Human), UniProt Q06187); test: BTK kinase assay (LanthaScreen Kinase assay); format: biochemical
Procedure: BTK kinase assay was conducted using LanthaScreen® Kinase assay.
1. Optimization of kinase concentration required to determine ATP Km,app. The assay was first performed at a high concentration of ATP (1 mM) against a dilution series of kinase in order to determine the amount of kinase required to elicit an approximately 80% change between the minimum and maximum TR-FRET emission ratios (the EC80 value).
2. Determination of ATP Km,app. Using the concentration of enzyme determined in step 1, the assay was then performed against a dilution series of ATP in order to determine the amount of ATP required to elicit a 50% change between the minimum and maximum TR-FRET emission ratios (the EC50 value). This concentration of ATP was referred to as the “apparent” Km value for ATP, or the ATP Km,app.
3. Optimization of kinase concentration required for assay at ATP Km,app. Using the ATP Km,app concentration of ATP determined in step 2, the kinase titration was repeated in order to determine the concentration of kinase required to elicit an approximately 80% change between the minimum and maximum TR-FRET emission ratios at the ATP Km,app concentration of ATP (the EC80 value). This was the concentration of kinase that will be used in an assay to determine an IC50 value for a compound of the invention.
Using the ATP and kinase concentrations determined above, the reaction was then performed in the presence of a dilution series of various compounds of the invention, and the amount of compounds required to elicit a 50% change in TR-FRET ratio (the IC50) was determined. The experiments can be performed over two days, with steps one and two being performed on the first day, and step three and the inhibitor IC50 determination(s) being performed on the second day.

[8] = tested on: KIF5B/Ret_V804M; test: Ba/F3 cell growth inhibition (MTS assay), KIF5B/Ret_V804M; format: cell-based
Procedure: as §2

[9] = target: EGFR Del/T790M/L718Q Ba/F3 cells (Homo sapiens, UniProt P00533, L718Q/T790M, cells depend on it, form not given); format: cell-based
Text: as §1, §2

[10] = target: EGFR L718Q/L858R Ba/F3 cells (Homo sapiens (Human), UniProt P00533, L718Q/L858R); test: Ba/F3 cell growth inhibition (MTS assay), EGFR L858R/L718Q; format: cell-based; details: 100 nM drug; Table F

BTK, sequence (Q06187 whole entry): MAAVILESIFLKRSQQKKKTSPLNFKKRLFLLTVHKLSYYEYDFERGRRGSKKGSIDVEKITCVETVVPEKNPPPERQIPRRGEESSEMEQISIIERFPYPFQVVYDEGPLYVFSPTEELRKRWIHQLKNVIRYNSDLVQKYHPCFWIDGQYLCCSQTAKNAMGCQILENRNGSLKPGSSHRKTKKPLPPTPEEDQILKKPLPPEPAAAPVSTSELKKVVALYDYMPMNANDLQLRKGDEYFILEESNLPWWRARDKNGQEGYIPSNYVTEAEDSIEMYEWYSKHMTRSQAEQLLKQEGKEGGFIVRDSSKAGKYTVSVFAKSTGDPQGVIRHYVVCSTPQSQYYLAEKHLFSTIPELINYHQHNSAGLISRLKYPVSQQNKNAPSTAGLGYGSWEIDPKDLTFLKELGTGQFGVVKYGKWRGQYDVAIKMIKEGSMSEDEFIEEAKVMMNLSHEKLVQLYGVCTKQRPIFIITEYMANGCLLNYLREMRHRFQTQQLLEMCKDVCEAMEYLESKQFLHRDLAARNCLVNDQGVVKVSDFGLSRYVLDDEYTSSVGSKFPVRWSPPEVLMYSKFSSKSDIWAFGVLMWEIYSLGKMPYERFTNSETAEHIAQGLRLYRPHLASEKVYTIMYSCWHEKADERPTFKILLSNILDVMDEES

Question: What does the source list for `C=CC(=O)Nc1cccc(N(C(=O)NCc2ccccc2)c2cc(Nc3ccc(N4CCN(C)CC4)cc3OC)nc(Cl)n2)c1` [Compound 78A]?
Answer: IC50 ([1]; Assay 1, L858R/T790M, read-out: EGFR Ba/F3 cells IC 50 (nM) Assay 1 L858R/T790M): 41.8 nM; IC50 ([2]; Assay 1, Del, read-out: EGFR Ba/F3 cells IC 50 (nM) Assay 1 Del): 23.9 nM; IC50 ([3]; Assay 1, T/L/L718Q, read-out: EGFR Ba/F3 cells IC 50 (nM) Assay 1 T/L/L718Q): 2240 nM; IC50 [4]: 19.9 nM; IC50 ([5]; Assay 1, Del/T790M, read-out: EGFR Ba/F3 cells IC 50 (nM) Assay 1 Del/T790M): 68.2 nM; IC50 ([6]; Assay 1, L858R, read-out: EGFR Ba/F3 cells IC 50 (nM) Assay 1 L858R): 2.66 nM

Question: Which IC50 [7] does the source give for `C=CC(=O)Nc1cccc(N(C(=O)OCc2ccccc2)c2ccnc3[nH]ccc23)c1` [Compound 103A] here?
Answer: Its IC50 is 2240 nM.

Question: For `CN(C)C/C=C/C(=O)Nc1cccc(N(C(=O)OCc2ccccc2)c2ccnc3[nH]ccc23)c1` [Compound 104A], which IC50 [7] is on record?
Answer: The IC50 was over 10000 nM.

Question: How did the “EGFR activity (% Control, 1.0 μM drug) Assay 1 KIF5B/Ret_V804M” value [8] turn out when `C=CC(=O)Nc1cccc(Oc2nc(Nc3ccc(N4CCN(C)CC4)cc3OC)ncc2Cl)c1` [WZ4002, reference compound] was run?
Answer: Its value is 93 % Control.

Question: What about the “EGFR activity (% Control, 100 nM drug) L858R/T790M” value ([1]; Table F) of the same compound?
Answer: The value was 3 % Control.

Question: And the “EGFR activity (% Control, 100 nM drug) L858R/T790M” value ([1]; Table G)?
Answer: Its value is 30 % Control.

Question: What about the “EGFR activity (% Control, 1.0 μM drug) Assay 1 Del” value [2] of the same compound?
Answer: Its value is 3 % Control.

Question: And the “EGFR activity (% Control, 1.0 μM drug) Assay 2 Del” value [2]?
Answer: The value was 6 % Control.

Question: What about the “EGFR activity (% Control, 100 nM drug) L858R/T790M/L718Q” value ([3]; 100 nM drug, Table F) of the same compound?
Answer: The value was 104 % Control.

Question: And the “EGFR activity (% Control, 1.0 μM drug) Assay 1 Del/T790M/L718Q” value [9]?
Answer: The value was 91 % Control.

Question: What about the “EGFR activity (% Control, 1.0 μM drug) Assay 2 Del/T790M/L718Q” value [9] of the same compound?
Answer: Its value is 85 % Control.

Question: And the “EGFR activity (% Control, 100 nM drug) L858R/L718Q” value [10]?
Answer: Its value is 94 % Control.

Question: And the “EGFR activity (% Control, 100 nM drug) DEL/T790M” value [5]?
Answer: Its value is 2 % Control.

Question: And the “EGFR activity (% Control, 100 nM drug) Del/T790M” value [5]?
Answer: Its value is 6 % Control.

Question: What about the “EGFR activity (% Control, 1.0 μM drug) Assay 1 Del/T790M” value [5] of the same compound?
Answer: Its value is 1 % Control.

Question: And the “EGFR activity (% Control, 1.0 μM drug) Assay 2 Del/T790M” value [5]?
Answer: Its value is 3 % Control.

Question: What about the “EGFR activity (% Control, 100 nM drug) L858R” value ([6]; Table F) of the same compound?
Answer: Its value is 2 % Control.

Question: And the “EGFR activity (% Control, 100 nM drug) L858R” value ([6]; Table G)?
Answer: The value was 0 % Control.

Question: And the “EGFR activity (% Control, 1.0 μM drug) Assay 1 L858R” value ([6]; 1.0 μM drug, Assay 1)?
Answer: The value was 2 % Control.

Question: And the “EGFR activity (% Control, 1.0 μM drug) Assay 2 L858R” value ([6]; 1.0 μM drug, Assay 2)?
Answer: Its value is 2 % Control.
